Assay results: patent EP4324461A1, “(E)-N-CINAMOYLAMINOALKANOLES WITH MELANOGENESIS INHIBITORY ACTIVITY” (UNIWERSYTET JAGIELLONSKI, priority 2022, dated 2024)
Read-outs that look alike come from different tables or passages of the source. Blank lines part the entries; values can stand above or below the molecule they belong to.

Assays:
tyrosinase from mushroom = assay: Inhibition of commercial mushroom tyrosinase (L-DOPA or L-tyrosine substrate); assay type: biochemical
Description: The following substrates were used for the enzymatic reaction: L-tyrosine and L-3,4-dihyroxyphenylalanine (L-DOPA). Both substrates were used in independent experiments. According to the literature, the use of L-DOPA enables the assessment of tyrosinase diphenolase activity, and L-tyrosine - the tyrosinase monophenolase activity. The determinations were performed in 96-well plates, in each well there was placed: 170 µL or 127.5 µL of 50 mM phosphate buffer (pH = 6.8) with tyrosinase (1U/well or 3U/well) and 10 µL of a solution of the tested compound in DMSO (the final concentration in the well was 500 µM, 250 µM or 125 µM). The negative control used 10 µL of pure solvent (DMSO). To initiate the reaction, an appropriate substrate was added: L-tyrosine (62.5 µL of solution in phosphate buffer) or L-DOPA (20 µL of solution in phosphate buffer). After a 25-minute incubation, the absorbance was measured at 475 nm using a microplate reader. The percentage of inhibition of tyrosinase activity was calculated using the formula: [(AC -AT)/AC] × 100, where AC - is the absorbance of the negative control, AT - is the absorbance of the sample containing the tested compound.

E. coli WP2 = assay: Ames microplate test, E. coli WP2; conditions: without S9;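 note: bacteria treated 90 min at 37 °C in 24-well plates, then indicator medium dispensed to 384-well plates and incubated 48 h before yellow-well counting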
Description: (§3) The study used the Ames microplate test (Ames MPF™ Penta 2 by Xenometrix, Allschwil, Switzerland). Growth medium, exposure medium, indicator medium, positive controls, hepatic microsomal fraction, NADP, glucose-6-phosphate, Salmonella typhimurium and Escherichia coli strains were components of the purchased experimental kit. Bacteria were grown overnight in growth medium. They were then exposed to the test compound at the appropriate concentration in exposure medium without or with the rat microsomal fraction S9 in 24-well plates for 90 min at 37 °C with shaking. Then, indicator medium was added to the wells and pipetted into 384-well plates, which were incubated for 48 hours at 37 °C without shaking. Results were assessed by counting the wells in which the medium turned yellow for each experimental condition.

[1] = test system: Chinese hamster ovary cell line (CHO-K1); assay: Genotoxicity in the micronucleus test in CHO-K1 cells; assay type: cell-based
S. typhimurium TA1535 = assay: Ames microplate test, TA1535; conditions: without S9;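 note: bacteria exposed to compound 90 min at 37 °C, then kept 48 h at 37 °C with indicator medium in 384-well plates, scoring wells that turned yellow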
Description: as §3

[2] = Lipophilicity coefficient RM0 by reversed phase thin layer chromatography; assay type: physicochemical; conditions: RP-18 TLC, methanol / 100 mM phosphate buffer pH = 7.4
Description: Confirmation of the identity and purity of the obtained compounds consisted in the registration and interpretation of ^1H NMR and ^13C NMR spectra (the spectra were recorded using an ECZR 500 MHz (JEOL) series FT-NMR spectrophotometer), as well as the registration and interpretation of LC-MS spectra (the spectra were recorded using Acquita UPLC system (Waters) coupled with a Waters TQD mass spectrometer). The melting point was measured using the open capillary method in the IA9300 device (Electrothermal). The lipophilicity coefficient RM0 was determined by reversed phase thin layer chromatography. In the study, aluminum plates 20x20 cm covered with modified silica gel RP-18 F254 (Merck) were used as the solid phase. The mobile phase consisted of solutions of methanol and 100 mM phosphate buffer (pH = 7.4), characterized by a variable methanol content ranging from 95 to 65% (v/v). The tested compounds were dissolved in methanol to obtain solutions with a concentration of 1 mg/mL. Then, 5 µL of the solutions prepared in this way were transferred to the starting line on aluminum plates, which were then placed in chromatographic chambers previously saturated with mobile phase vapors for at least 1 hour. All activities, including the development of chromatograms, were carried out at room temperature. After developing the chromatograms to approximately 1-2 cm from the end of the plate, the plates were dried and then the distance traveled by the tested compounds was visualized under UV light (λ = 254 nm). The experiment was performed in duplicate for the specified conditions. For all samples, Rf was calculated according to the formula Rf = a/b, where a - the distance traveled by the tested compound, b - the distance traveled by the mobile phase. Then, the RM parameter was calculated for all samples according to the formula RM = log(1/Rf - 1), obtaining a linear relationship between the RM values and the methanol concentration in the mobile phase. The logP coefficient was also calculated using the following computer programs: ACD/ChemSketch 2020.1.2 and ChemDraw 20.0.0.41. Table 2. The physicochemical data of the compounds are presented below

S. typhimurium TA1537 = assay: Ames microplate test, TA1537; assay type: cell-based, Salmonella typhimurium; conditions: without S9;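 note: reference level is the mean solvent-control yellow wells plus SD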
Description: (§1) Bacteria were grown overnight in growth medium.
(§2) Table 9. Ames microplate test results.

[3] = test system: Chinese hamster ovary cell line (CHO-K1); assay: Cytotoxicity in CHO-K1 cells (MTT) before the micronucleus test; assay type: cell-based; conditions: 24 hours
Description: The assay was performed using a Chinese hamster ovary cell line (CHO-K1) purchased from the American Type Culture Collection (ATCC). The cells were cultured in F-12K medium with the addition of 10% fetal bovine serum (FBS) and antibiotics (streptomycin/penicillin) in an incubator at 37 °C and 5% CO2 concentration). Before the actual micronucleus test, a cytotoxicity assessment was performed to ensure that the actual test was performed only at safe concentrations. For this purpose, cells were transferred to 96-well plates and incubated with the tested compounds for 24 hours. After this time, the MTT test was performed and cell viability was assessed in comparison to the control group (cells cultured with DMSO at the same concentration as in the case of the tested samples).

S. typhimurium TA100 = assay: Ames microplate test, TA100; assay type: cell-based, Salmonella typhimurium; conditions: without S9;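 note: reference level is the mean solvent-control yellow wells plus SD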
Description: as §1, §2

[4] = test system: B16-F10 murine melanoma cell line; assay: Cytotoxicity in B16-F10 cells (MTT); assay type: cell-based; conditions: 48 h
Description: In order to determine safe doses of compounds for testing the inhibition of melanogenesis in a murine melanoma cell line, cytotoxicity tests were performed. Cytotoxicity was determined by the colorimetric method using MTT ([3-(4,5-dimethyl-2-thiazolyl)-2,5-diphenyl-2H-tetrazolium bromide, Sigma M5655). For this purpose, cells were transferred to 96-well plates in an amount of 5000/well. After 24 h of culture in an incubator in F 10-Ham medium with 1% FBS, the tested compounds at various concentrations were added to the wells together with fresh medium. DMSO was added to the medium in a negative control. The MTT test was performed after further culture for 48 h. Then the medium was removed and the formed formazan crystals were dissolved in DMSO. The absorbance was measured at 570 nm in a plate reader and the result was compared to the control (DMSO), which was 100%. The percentage of viability was calculated using the formula: [AT/AC^∗100], where AT is the absorbance of the test sample, AC - absorbance of the control sample. Table 3. Results of inhibiting the activity of monophenolase […] tyrosinase and cytotoxicity testing in B16F10 cells for the described compounds.

S. typhimurium TA98 = assay: Ames microplate test, TA98; assay type: cell-based, Salmonella typhimurium; conditions: without S9;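 note: reference level is the mean solvent-control yellow wells plus SD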
Description: as §1, §2

[5] = L-DOPA, read-out: Tyrosinase inhibition with L-DOPA, IC50
[6] = L-tyrosine, read-out: Tyrosinase inhibition with L-tyrosine, IC50

SMILES: CC(CO)NC(=O)/C=C/c1ccc(Cl)cc1 (stereo not shown) [Compound A-102, (2E)-3-(4-chlorophenyl)-N-(1-hydroxypropan-2-yl)prop-2-enamide]
- Tyrosinase inhibition with L-DOPA [%] (tyrosinase from mushroom; L-DOPA): 53.02±1.99% (500 µM)
- IC50 (tyrosinase from mushroom; [5]): 440 µM
- Tyrosinase inhibition with L-tyrosine [%] (tyrosinase from mushroom; L-tyrosine): 75.45±1.80% (500 µM)
- IC50 (tyrosinase from mushroom; [6]): 164 µM
- Increase in the number of yellow wells compared to the reference level (E. coli WP2; 0.5 mM): 0.48
- Increase in the number of yellow wells compared to the reference level (E. coli WP2; 1.0 mM): 1.03
- Increase in the number of yellow wells compared to the reference level (E. coli WP2; 2.0 mM): 0.79
- DB (dicentric bridges in 1000 binucleate cells) ([1]; 100 µM): 4.0 ± 2.8
- MN (number of micronuclei in 1000 binucleate cells) ([1]; 100 µM): 10.5 ± 2.1
- NB (nuclear buds in 1000 binucleate cells) ([1]; 100 µM): 5.5 ± 2.1
- NDI (nuclear division index) ([1]; 100 µM): 1.54
- DB (dicentric bridges in 1000 binucleate cells) ([1]; 150 µM): 2.5 ± 2.1
- MN (number of micronuclei in 1000 binucleate cells) ([1]; 150 µM): 6.5 ± 2.1
- NB (nuclear buds in 1000 binucleate cells) ([1]; 150 µM): 6.5 ± 2.1
- NDI (nuclear division index) ([1]; 150 µM): 1.54
- DB (dicentric bridges in 1000 binucleate cells) ([1]; 200 µM): 3.0 ± 1.4
- MN (number of micronuclei in 1000 binucleate cells) ([1]; 200 µM): 8.5 ± 0.7
- NB (nuclear buds in 1000 binucleate cells) ([1]; 200 µM): 4.0 ± 1.4
- NDI (nuclear division index) ([1]; 200 µM): 1.60
- Increase in the number of yellow wells compared to the reference level (S. typhimurium TA1535; 0.5 mM): 0.55
- Increase in the number of yellow wells compared to the reference level (S. typhimurium TA1535; 1.0 mM): 0.14
- Increase in the number of yellow wells compared to the reference level (S. typhimurium TA1535; 2.0 mM): 0.89
- RM0 [2]: 2.12
- Increase in the number of yellow wells compared to the reference level (S. typhimurium TA1537; 0.5 mM): 0.33
- Increase in the number of yellow wells compared to the reference level (S. typhimurium TA1537; 1.0 mM): 0.00
- Increase in the number of yellow wells compared to the reference level (S. typhimurium TA1537; 2.0 mM): 1.00
- % Viability [mean] ([3]; 100 µM): 84.7%
- % Viability [mean] ([3]; 150 µM): 69.9%
- % Viability [mean] ([3]; 200 µM): 87.2%
- Increase in the number of yellow wells compared to the reference level (S. typhimurium TA100; 0.5 mM): 1.08
- Increase in the number of yellow wells compared to the reference level (S. typhimurium TA100; 1.0 mM): 0.75
- Increase in the number of yellow wells compared to the reference level (S. typhimurium TA100; 2.0 mM): 0.92
- Cytotoxicity study in B16F10 cells % viability ([4]; 150 µM): 80.6%
- Cytotoxicity study in B16F10 cells % viability ([4]; 200 µM): 83.5%
- Cytotoxicity study in B16F10 cells % viability ([4]; 250 µM): 75.7%
- Increase in the number of yellow wells compared to the reference level (S. typhimurium TA98; 0.5 mM): 0.24
- Increase in the number of yellow wells compared to the reference level (S. typhimurium TA98; 1.0 mM): 0.24
- Increase in the number of yellow wells compared to the reference level (S. typhimurium TA98; 2.0 mM): 0.35

- Tyrosinase inhibition with L-DOPA [%] (tyrosinase from mushroom; L-DOPA): 5.8±3.04% (500 µM)
- Tyrosinase inhibition with L-tyrosine [%] (tyrosinase from mushroom; L-tyrosine): 24.43±8.05% (500 µM)
- RM0 [2]: 3.08
SMILES: CCC(O)CNC(=O)/C=C/c1ccc(Cl)cc1Cl (stereo not shown) [H-320/21, (2E)-3-(2,4-dichlorophenyl)-N-(2-hydroxybutyl)prop-2-enamide]
- Cytotoxicity study in B16F10 cells % viability ([4]; 150 µM): 101.7%
- Cytotoxicity study in B16F10 cells % viability ([4]; 200 µM): 90.8%
- Cytotoxicity study in B16F10 cells % viability ([4]; 250 µM): 33.9%

- Tyrosinase inhibition with L-DOPA [%] (tyrosinase from mushroom; L-DOPA): 16.99±5.66% (500 µM)
- Tyrosinase inhibition with L-tyrosine [%] (tyrosinase from mushroom; L-tyrosine): 0.51±5.40% (500 µM)
- RM0 [2]: 2.04
SMILES: Cc1ccc(/C=C/C(=O)NCCCO)cc1 [H-410/21, (2E)-N-(3-hydroxypropyl)-3-(4-methylphenyl)prop-2-enamide]
- Cytotoxicity study in B16F10 cells % viability ([4]; 150 µM): 88.8%
- Cytotoxicity study in B16F10 cells % viability ([4]; 200 µM): 90.7%
- Cytotoxicity study in B16F10 cells % viability ([4]; 250 µM): 79.8%

- Tyrosinase inhibition with L-DOPA [%] (tyrosinase from mushroom; L-DOPA): 30.54±1.20% (500 µM)
- Tyrosinase inhibition with L-tyrosine [%] (tyrosinase from mushroom; L-tyrosine): 21.00±8.83% (500 µM)
- RM0 [2]: 1.27
SMILES: O=C(/C=C/c1ccccc1)NCCO [H-429/21, (2E)-N-(2-hydroxyethyl)-3-phenylprop-2-enamide]
- Cytotoxicity study in B16F10 cells % viability ([4]; 150 µM): 86.4%
- Cytotoxicity study in B16F10 cells % viability ([4]; 200 µM): 79.8%
- Cytotoxicity study in B16F10 cells % viability ([4]; 250 µM): 80.9%

- Tyrosinase inhibition with L-DOPA [%] (tyrosinase from mushroom; L-DOPA): 64.31±0.21% (500 µM)
- IC50 (tyrosinase from mushroom; [5]): 153 µM
- Tyrosinase inhibition with L-tyrosine [%] (tyrosinase from mushroom; L-tyrosine): 82.50±0.87% (500 µM)
- IC50 (tyrosinase from mushroom; [6]): 103 µM
- RM0 [2]: 2.14
SMILES: O=C(/C=C/c1ccc(Cl)cc1)NCCCCO [H-331/21, (2E)-3-(4-chlorophenyl)-N-(4-hydroxybutyl)prop-2-enamide]
- Cytotoxicity study in B16F10 cells % viability ([4]; 12.5 µM): 49.0%
- Cytotoxicity study in B16F10 cells % viability ([4]; 25 µM): 47.8%
- Cytotoxicity study in B16F10 cells % viability ([4]; 50 µM): 54.2%
- Cytotoxicity study in B16F10 cells % viability ([4]; 150 µM): 32.7%
- Cytotoxicity study in B16F10 cells % viability ([4]; 200 µM): 51.9%
- Cytotoxicity study in B16F10 cells % viability ([4]; 250 µM): 52.7%

- Tyrosinase inhibition with L-DOPA [%] (tyrosinase from mushroom; L-DOPA): 34.23±2.32% (500 µM)
- Tyrosinase inhibition with L-tyrosine [%] (tyrosinase from mushroom; L-tyrosine): 27.41±2.24% (500 µM)
- RM0 [2]: 1.60
SMILES: O=C(/C=C/c1ccccc1)NCCCO [KM-634, (2E)-N-(3-hydroxypropyl)-3-phenylprop-2-enamide]
- Cytotoxicity study in B16F10 cells % viability ([4]; 150 µM): 76.1%
- Cytotoxicity study in B16F10 cells % viability ([4]; 200 µM): 70.5%
- Cytotoxicity study in B16F10 cells % viability ([4]; 250 µM): 63.3%
